Laboratory results as given in paper PMC3808999 (Molecular cell, 2013).

Tests used:
[1] = target: human STING C-terminal domain (CTD, residues 139–379) (Homo sapiens, UniProt Q86WV6, H232R); assay: Isothermal titration calorimetry; conditions: direct ITC titration
[2] = target: WT human STING (Homo sapiens, UniProt Q86WV6, H232R); assay: IFNβ induction; conditions: L929 cells expressing WT human STING; IFN-β RNA by q-RT-PCR
[3] = target: R232A human STING (Homo sapiens, UniProt Q86WV6, H232A); assay: IFNβ induction; conditions: L929 cells expressing R232A human STING; IFN-β RNA by q-RT-PCR
R232A human STING, sequence (Q86WV6 whole entry H232A): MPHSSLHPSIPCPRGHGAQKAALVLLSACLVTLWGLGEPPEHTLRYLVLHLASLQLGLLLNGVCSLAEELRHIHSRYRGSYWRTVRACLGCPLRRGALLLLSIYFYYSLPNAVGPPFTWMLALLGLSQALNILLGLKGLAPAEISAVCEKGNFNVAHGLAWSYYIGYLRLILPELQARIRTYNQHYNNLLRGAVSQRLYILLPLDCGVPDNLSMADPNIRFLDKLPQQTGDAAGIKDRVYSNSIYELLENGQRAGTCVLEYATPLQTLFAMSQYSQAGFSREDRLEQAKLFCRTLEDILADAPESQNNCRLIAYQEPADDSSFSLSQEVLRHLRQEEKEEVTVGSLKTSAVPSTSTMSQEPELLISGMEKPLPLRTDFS

[4] = target: R232H human STING (Homo sapiens, UniProt Q86WV6); assay: IFNβ induction; conditions: L929 cells expressing R232H human STING; IFN-β RNA by q-RT-PCR
R232H human STING, sequence (Q86WV6 whole entry, stated change not applied): as the sequence (Q86WV6 whole entry H232A) above, with A232H counted along it

WT human STING, sequence (Q86WV6 whole entry H232R): as the sequence (Q86WV6 whole entry H232A) above, with A232R counted along it
human STING C-terminal domain (CTD, residues 139–379), sequence (Q86WV6 139-379 H232R): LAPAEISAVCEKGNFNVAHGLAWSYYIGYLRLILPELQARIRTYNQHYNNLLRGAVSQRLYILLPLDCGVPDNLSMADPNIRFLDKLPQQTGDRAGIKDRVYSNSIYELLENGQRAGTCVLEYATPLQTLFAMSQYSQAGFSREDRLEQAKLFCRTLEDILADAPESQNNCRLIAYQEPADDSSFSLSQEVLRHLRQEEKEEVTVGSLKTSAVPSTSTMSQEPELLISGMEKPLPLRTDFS

## Nc1nc2c(ncn2[C@@H]2O[C@@H]3COP(=O)(O)O[C@H]4[C@@H](O)[C@H](n5cnc6c(=O)[nH]c(N)nc65)O[C@@H]4COP(=O)(O)O[C@H]3[C@H]2O)c(=O)[nH]1 [c-di-GMP, cyclic di-GMP]
[1]
  heat character of binding to STING: exothermic

## poly[I:C]
[2]
  IFNβ induction: stimulated IFNβ expression
[3]
  IFNβ induction: stimulated IFNβ expression
[4]
  IFNβ induction: stimulated IFNβ expression
